From ChEMBL document CHEMBL3885861, “Open TG-GATES”

Species: Rattus norvegicus
Assay: Open TG-GATES - Regimen: Daily Repeat
Assay type: toxicity, organism-based, Sprague-Dawley
Set-up: regimen Daily Repeat, gender Male, age 6 weeks
Conditions: in vivo, po, 100 mg/kg, […], route gavage, dose level Low; for KIDNEY_L / KIDNEY_R / KIDNEY_TOTAL: tissue Kidney; for LIVER: tissue Liver; for A/G / ALP / ALT / AST / BUN / CRE / Ca / Cl / DBIL / GLC / IP / K / LDH / Na / PL / RALB / TBIL / TC / TG / TP / gamma-GTP: tissue Plasma

**Q.** How did the Lym (tissue Blood, time 28 day) turn out when `O=C(O)c1cc(/N=N/c2ccc(S(=O)(=O)Nc3ccccn3)cc2)ccc1O` [SULFASALAZINE] was run?
**A.** 81.2%

**Q.** And the MCH (tissue Blood, time 28 day)?
**A.** 19.8 pg

**Q.** And the MCHC (tissue Blood, time 28 day)?
**A.** 35.6%

**Q.** And the MCV (tissue Blood, time 28 day)?
**A.** 55.6 fL

**Q.** What about the Mono (tissue Blood, time 28 day) of the same molecule?
**A.** 2.4%

**Q.** And the Neu (tissue Blood, time 28 day)?
**A.** 14.6%

**Q.** And the PT (tissue Blood, time 28 day)?
**A.** 12.6 s

**Q.** What about the Plat (tissue Blood, time 28 day) of the same molecule?
**A.** 105.8 x10_4/uL

**Q.** And the RBC (tissue Blood, time 28 day)?
**A.** 764.8 x10_4/ul

**Q.** What about the Ret (tissue Blood, time 28 day) of the same molecule?
**A.** 3.2%

**Q.** And the WBC (tissue Blood, time 28 day)?
**A.** 113.7 x10_2/uL

**Q.** And the KIDNEY_L (time 7 day)?
**A.** 1.1 g

**Q.** What about the KIDNEY_R (time 7 day) of the same molecule?
**A.** 1.1 g

**Q.** What about the KIDNEY_TOTAL (time 7 day) of the same molecule?
**A.** 2.2 g

**Q.** And the KIDNEY_L (time 14 day)?
**A.** 1.2 g

**Q.** And the KIDNEY_R (time 14 day)?
**A.** 1.2 g

**Q.** What about the KIDNEY_TOTAL (time 14 day) of the same molecule?
**A.** 2.3 g

**Q.** And the KIDNEY_L (time 28 day)?
**A.** 1.4 g

**Q.** What about the KIDNEY_R (time 28 day) of the same molecule?
**A.** 1.4 g

**Q.** And the KIDNEY_TOTAL (time 28 day)?
**A.** 2.7 g

**Q.** And the LIVER (time 7 day)?
**A.** 11.9 g

**Q.** And the LIVER (time 14 day)?
**A.** 13 g

**Q.** What about the LIVER (time 28 day) of the same molecule?
**A.** 15 g

**Q.** What about the A/G (time 7 day) of the same molecule?
**A.** 1.6

**Q.** And the ALP (time 7 day)?
**A.** 780.6 IU/L

**Q.** And the ALT (time 7 day)?
**A.** 31.8 IU/L

**Q.** What about the AST (time 7 day) of the same molecule?
**A.** 63.8 IU/L

**Q.** And the BUN (time 7 day)?
**A.** 16.4 mg/dL

**Q.** And the CRE (time 7 day)?
**A.** 0.4 mg/dL

**Q.** What about the Ca (time 7 day) of the same molecule?
**A.** 10.6 mg/dL

**Q.** What about the Cl (time 7 day) of the same molecule?
**A.** 103.4 meq/L

**Q.** What about the DBIL (time 7 day) of the same molecule?
**A.** 0.074 mg/dL

**Q.** And the GLC (time 7 day)?
**A.** 232 mg/dL

**Q.** And the IP (time 7 day)?
**A.** 7.2 mg/dL

**Q.** What about the K (time 7 day) of the same molecule?
**A.** 3.7 meq/L

**Q.** What about the LDH (time 7 day) of the same molecule?
**A.** 217.4 IU/L

**Q.** What about the Na (time 7 day) of the same molecule?
**A.** 140.6 meq/L

**Q.** What about the PL (time 7 day) of the same molecule?
**A.** 149.6 mg/dL

**Q.** And the RALB (time 7 day)?
**A.** 3.5 g/dL

**Q.** And the TBIL (time 7 day)?
**A.** 0.1 mg/dL

**Q.** What about the TC (time 7 day) of the same molecule?
**A.** 72.8 mg/dL

**Q.** And the TG (time 7 day)?
**A.** 71 mg/dL

**Q.** And the TP (time 7 day)?
**A.** 5.7 g/dL

**Q.** What about the gamma-GTP (time 7 day) of the same molecule?
**A.** 1.4 IU/L

**Q.** What about the A/G (time 14 day) of the same molecule?
**A.** 1.5

**Q.** What about the ALP (time 14 day) of the same molecule?
**A.** 842.8 IU/L

**Q.** And the ALT (time 14 day)?
**A.** 34 IU/L

**Q.** And the AST (time 14 day)?
**A.** 65.6 IU/L

**Q.** What about the BUN (time 14 day) of the same molecule?
**A.** 16.8 mg/dL

**Q.** And the CRE (time 14 day)?
**A.** 0.5 mg/dL

**Q.** What about the Ca (time 14 day) of the same molecule?
**A.** 10.5 mg/dL

**Q.** What about the Cl (time 14 day) of the same molecule?
**A.** 103.4 meq/L

**Q.** And the DBIL (time 14 day)?
**A.** 0.1 mg/dL

**Q.** And the GLC (time 14 day)?
**A.** 203.8 mg/dL

**Q.** What about the IP (time 14 day) of the same molecule?
**A.** 6.5 mg/dL

**Q.** And the K (time 14 day)?
**A.** 3.6 meq/L

**Q.** And the LDH (time 14 day)?
**A.** 196 IU/L

**Q.** And the Na (time 14 day)?
**A.** 141.4 meq/L

**Q.** What about the PL (time 14 day) of the same molecule?
**A.** 153.6 mg/dL

**Q.** And the RALB (time 14 day)?
**A.** 3.5 g/dL

**Q.** And the TBIL (time 14 day)?
**A.** 0.2 mg/dL

**Q.** And the TC (time 14 day)?
**A.** 70.6 mg/dL

**Q.** And the TG (time 14 day)?
**A.** 133.4 mg/dL

**Q.** What about the TP (time 14 day) of the same molecule?
**A.** 5.8 g/dL

**Q.** And the gamma-GTP (time 14 day)?
**A.** 1.2 IU/L

**Q.** What about the A/G (time 28 day) of the same molecule?
**A.** 1.3

**Q.** What about the ALP (time 28 day) of the same molecule?
**A.** 678.2 IU/L

**Q.** What about the ALT (time 28 day) of the same molecule?
**A.** 38.8 IU/L

**Q.** What about the AST (time 28 day) of the same molecule?
**A.** 65.8 IU/L

**Q.** What about the BUN (time 28 day) of the same molecule?
**A.** 18 mg/dL

**Q.** And the CRE (time 28 day)?
**A.** 0.5 mg/dL

**Q.** What about the Ca (time 28 day) of the same molecule?
**A.** 10.5 mg/dL

**Q.** What about the Cl (time 28 day) of the same molecule?
**A.** 102.8 meq/L

**Q.** And the DBIL (time 28 day)?
**A.** 0.1 mg/dL

**Q.** What about the GLC (time 28 day) of the same molecule?
**A.** 215 mg/dL

**Q.** What about the IP (time 28 day) of the same molecule?
**A.** 6 mg/dL

**Q.** And the K (time 28 day)?
**A.** 3.6 meq/L

**Q.** What about the LDH (time 28 day) of the same molecule?
**A.** 185.6 IU/L

**Q.** What about the Na (time 28 day) of the same molecule?
**A.** 141.4 meq/L

**Q.** What about the PL (time 28 day) of the same molecule?
**A.** 154 mg/dL

**Q.** And the RALB (time 28 day)?
**A.** 3.6 g/dL

**Q.** What about the TBIL (time 28 day) of the same molecule?
**A.** 0.2 mg/dL

**Q.** And the TC (time 28 day)?
**A.** 71.6 mg/dL

**Q.** What about the TG (time 28 day) of the same molecule?
**A.** 129.8 mg/dL

**Q.** What about the TP (time 28 day) of the same molecule?
**A.** 6.3 g/dL

**Q.** What about the gamma-GTP (time 28 day) of the same molecule?
**A.** 0.6 IU/L
